Experimental data published in PMC10525927, “First Generation of Antioxidant Precursors for Bioisosteric Se-NSAIDs: Design, Synthesis, and In Vitro and In Vivo Anticancer Evaluation” (Antioxidants, 2023).

Assays:
[1] = test system: 184B5 non-tumorigenic breast (mammary gland) cells; test: MTT cell viability assay, 184B5; type: cell-based; conditions: mean ± SD; for IC50: nonmalignant breast cells
Method: (§1) The cell lines were purchased from the American Type Culture Collection (ATCC). The cancer cell lines DU-145, PC-3, T-47D, MDA-MB-231, H1299, and A549, and the non-tumorigenic cells (184B5 and BEAS-2B), were maintained in RPMI 1640 medium (Gibco, Alcobendas, Madrid, Spain) supplemented with 10% fetal bovine serum (FBS; Gibco) and 1% antibiotics (10.00 units/mL penicillin and 10.00 mg/mL streptomycin; Gibco). Colon cancer cells HT-29 and HCT-116 were cultured in McCoy’s 5A medium (Gibco) supplemented with 10% fetal bovine serum (FBS; Gibco) and 1% antibiotics (10.00 units/mL penicillin and 10.00 mg/mL streptomycin; Gibco). Cells were maintained in tissue culture flasks at 37 °C and 5% CO2. The culture medium was replaced every three days.
(§2) The antiproliferative activity and selectivity in vitro of the Se-NSAID derivatives were determined by the (3-(4,5-dimethylthiazol-2-yl)-2,5-diphenyltetrazolium bromide) (MTT) assay. Compounds were dissolved in DMSO at a concentration of 0.01 M and serial dilutions were prepared. The Se-NSAID derivatives were tested at seven concentrations ranging between 1 and 100 µM in the colon (HT-29 and HCT-116), prostate (DU-145 and PC-3), breast (MDA-MB-231 and T-47D), and lung (H1299 and A549) cancer cell lines. The non-tumorigenic breast (184B5) and lung (BEAS-2B) cell lines were also tested to assess the selectivity of the compounds following the same procedure. A total of 1 × 10^4 cells were seeded per well in 96-well plates and incubated at 5% CO2 and 37 °C for 24 h. Then, cells were treated with either DMSO or increasing concentrations of the corresponding Se-NSAID derivatives for 48 h. A volume of 20 µL of MTT (5 mg/mL) was added to each well 2.5 h before the termination point. At the end of the experiment, the medium was removed, and the resultant formazan crystals formed by mitochondrial reduction of MTT were dissolved in 50 µL of DMSO. Absorbance was measured at 550 nm. IC50, GI50, TGI, and LC50 values were calculated using OriginPro version 8.5.1. software by nonlinear curve fitting. Selectivity indexes (SI) were calculated as the ratio of the IC50 values determined for the nonmalignant and the tumoral cells in the breast (IC50 (184B5)/IC50 (MDA-MB-231) and IC50 (184B5)/IC50 (T-47D)) and lung (IC50 (BEAS-2B)/IC50 (H1299) and IC50 (BEAS-2B)/IC50 (A549)) cell lines. Data were obtained from at least three independent experiments performed in triplicates.

[2] = test system: HT-29 colon cancer cells; test: MTT cell viability assay, HT-29; type: cell-based; conditions: mean ± SD
Method: as §1, §2

[3] = in vitro TGI concentration, 48 h, Table S1

For CC(C)Cc1ccc(C(C)C(=O)[Se][Se]C(=O)C(C)c2ccc(CC(C)C)cc2)cc1 (stereo not shown) [Compound 5, 2-(4-Isobutylphenyl)propanoic diselenoperoxyanhydride], the IC50 ([1]; 48 h) was 18.2 ± 0.8 µM, the GI50 ([1]; Homo sapiens, 184B5, 48 h, Table S1) was 6.6 ± 1.5 µM and the IC50 ([1]; Homo sapiens, 184B5, 48 h) was 14 to 19 µM. The “TGI 184B5” value [1, 3] was 11.1 ± 1.4 µM, the IC50 ([2]; Homo sapiens, HT-29, 48 h) was 8.5 ± 2.7 µM and the GI50 ([2]; Homo sapiens, HT-29, 48 h, Table S1) was 4.8 ± 1 µM. The “TGI HT-29” value [2, 3] was 7.2 ± 1.8 µM.
